Results published in PubChem BioAssay AID1963862 (Molecular Pharmacology Branch, DTP, NCI, 2024).

Tested on: KRAS patient-derived spheroids with HUVEC/MSC, viability
Test: Anticancer human tumor 941728-121-R-J1-PDC patient-derived lung adenocarcinoma cell line growth inhibition [KRAS2]
Settings: for IC50: curve of first compound; for viability, T/C: stronger effect = lower value
Excerpt: Multicellular complex tumor spheroid response to RAS pathway inhibitors in combination with a targeted agents in patient-derived cell lines with oncogenic KRAS variants from multiple cancer types
A high-throughput screen of multi-cell type tumor spheroids was designed to identify active combinations of targeted small molecules and KRAS pathway inhibitors. Complex spheroids include a stromal component modeled by human endothelial cells (HUVEC) and fibroblasts modeled by human mesenchymal stem cells (MSCs). The concentration ranges selected for each drug and investigational agent were based upon clinically achievable concentrations if the clinical Cmax of the agent was known.
Compounds. The drugs and investigational agents: BI-3406 (NSC825286), BAY-293 (NSC824723), batoprotafib (TNO155; NSC825523), sotorasib (AMG 510; NSC818433), MRTX1257 (NSC819558), elimusertib (BAY 1895344; NSC800525), molibresib (GSK525762; NSC774829), temuterkib (LY3214996; NSC803410), venetoclax (NSC766270), alisertib (NSC759677), olaparib (NSC753686), talazoparib (NSC767125), erdafitinib (NSC781556), ipatasertib (NSC767898), cabozantinib (NSC761068), nintedanib (NSC756659), abemaciclib (NSC768073), docetaxel (NSC628503), trametinib (NSC758246), and sapanisertib (NSC764658) were obtained from the National Cancer Institute (NCI) Developmental Therapeutics Program Chemical Repository. The FDA-approved anticancer drug set is available from the Developmental Therapeutics Program. […] The stock solutions were prepared in dimethyl sulfoxide (DMSO, Sigma-Aldrich, St. Louis, MO, cat. D2650) at 800-fold the tested concentration and stored at -70 degrees C prior to their use. All drugs and investigational agents were tested over a range starting from a high concentration at or near the clinical Cmax and decreasing in half-log increments. If the clinical Cmax for an agent had not been determined, the highest concentration tested was 10 microM.
Cell Culture. All cells were maintained in an incubator at 37 degrees C and 5% CO2 with 95% humidity. The PDC lines were cultured according to standard operating procedures established by the NCI PDMR (https://pdmr.cancer.gov/sops/default.htm). Briefly, all PDCs were thawed and cultured in Matrigel-coated flasks prepared with a working solution of 1X Ham's F-12 nutrient mix, without supplementation (Invitrogen, Waltham, MA, cat. 11765054), 100 U/mL penicillin-streptomycin (Invitrogen, cat. 15140122), and 2.5% Matrigel (Corning Inc., Corning, NY, cat. 354248) for the first three passages. All PDCs were cultured in complete DMEM/F-12 media containing advanced DMEM/F-12 (Invitrogen, cat. 12634028), 4.9% defined fetal bovine serum, heat inactivated (HyClone Laboratories Inc., Logan, UT, cat. SH30070.03HI), 389 ng/mL hydrocortisone (Sigma-Aldrich, cat. H4001), 9.7 ng/mL human EGF recombinant protein (Invitrogen, cat. PHG0313), 23.4 microg/mL adenine (Sigma-Aldrich, cat. A2786), 97.3 U/mL penicillin-streptomycin (Invitrogen, cat. 15140122), 1.9 mM L-glutamine (Invitrogen, cat. 25030081), and 9.7 microM Y-27632 dihydrochloride (Tocris Bioscience, Bristol, United Kingdom, cat. 1254). The PDCs were cultured in complete DMEM/F12 media without 9.7 microM Y-27632 dihydrochloride for at least two passages prior to the screen. The established cell line HOP-62 was cultured in RPMI 1640 medium, HEPES (Invitrogen, cat. 22400105) with 10% defined fetal bovine serum (HyClone Laboratories Inc., cat. SH30070.03) and 2 mM L-glutamine (Invitrogen, cat. 25030081). The pooled donor HUVEC were cultured in endothelial cell growth medium 2 (PromoCell, Heidelberg, Germany, cat. C-22011) and the hMSC were cultured in mesenchymal stem cell growth medium 2 (PromoCell, cat. C-28009). For all experiments, HUVEC and hMSC were used at passages </=5, while the malignant cell lines were used at passages </=15. […]

[1] = second compound 0.1 µM, first compound 0.0316 µM
[2] = second compound 0.1 µM, first compound 0.1 µM
[3] = second compound 0.1 µM, first compound 0.316 µM
[4] = second compound 0.1 µM, first compound 1 µM
[5] = second compound 0.1 µM, first compound 3.16 µM
[6] = second compound 0.1 µM, first compound 10 µM
[7] = second compound 0.316 µM, first compound 0.0316 µM
[8] = second compound 0.316 µM, first compound 0.1 µM
[9] = second compound 0.316 µM, first compound 0.316 µM
[10] = second compound 0.316 µM, first compound 1 µM
[11] = second compound 0.316 µM, first compound 3.16 µM
[12] = second compound 0.316 µM, first compound 10 µM
[13] = second compound 1 µM, first compound 0.0316 µM
[14] = second compound 1 µM, first compound 0.1 µM
[15] = second compound 1 µM, first compound 0.316 µM
[16] = second compound 1 µM, first compound 1 µM
[17] = second compound 1 µM, first compound 3.16 µM
[18] = second compound 1 µM, first compound 10 µM
[19] = second compound 3.16 µM, first compound 0.0316 µM
[20] = second compound 3.16 µM, first compound 0.1 µM
[21] = second compound 3.16 µM, first compound 0.316 µM
[22] = second compound 3.16 µM, first compound 1 µM
[23] = second compound 3.16 µM, first compound 3.16 µM
[24] = second compound 3.16 µM, first compound 10 µM
[25] = second compound 10 µM, first compound 0.0316 µM
[26] = second compound 10 µM, first compound 0.1 µM
[27] = second compound 10 µM, first compound 0.316 µM
[28] = second compound 10 µM, first compound 1 µM
[29] = second compound 10 µM, first compound 3.16 µM
[30] = second compound 10 µM, first compound 10 µM
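Note: spheroids exposed to agents for seven days before readout.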

Row | Structure (SMILES) | IC50 (second compound 0.1 µM) | IC50 (second compound 0.316 µM) | IC50 (second compound 1 µM) | IC50 (second compound 3.16 µM) | IC50 (second compound 10 µM) | viability, T/C [1] | viability, T/C [2] | viability, T/C [3] | viability, T/C [4] | viability, T/C [5] | viability, T/C [6] | viability, T/C [7] | viability, T/C [8] | viability, T/C [9] | viability, T/C [10] | viability, T/C [11] | viability, T/C [12] | viability, T/C [13] | viability, T/C [14] | viability, T/C [15] | also measured
1 | COC(=O)c1ccc2c(C(=Nc3ccc(N(C)C(=O)CN4CCN(C)CC4)cc3)c3ccccc3)c(O)[nH]c2c1 + C=CC(=O)N1CCN(c2nc(=O)n(-c3c(C)ccnc3C(C)C)c3nc(-c4c(O)cccc4F)c(F)cc23)C(C)C1 | < 31.6 nM | < 31.6 nM | < 31.6 nM | < 31.6 nM | < 31.6 nM | 24.5% | 19.7% | 16.4% | 12.7% | 10.2% | 7.41% | 22.8% | 20.1% | 18.5% | 12.8% | 8.05% | 6.62% | 26.3% | 21.2% | 16.8% | viability, T/C [16]: 14.4%; viability, T/C [17]: 7.55%; viability, T/C [18]: 5.43%; viability, T/C [19]: 27.1%; viability, T/C [20]: 25.1%; viability, T/C [21]: 20.8%; viability, T/C [22]: 17.8%; viability, T/C [23]: 6.67%; viability, T/C [24]: 8.37%; viability, T/C [25]: 41.2%; viability, T/C [26]: 30.2%; viability, T/C [27]: 31.6%; viability, T/C [28]: 29.6%; viability, T/C [29]: 4.3%; viability, T/C [30]: 0.23%
2 | O=C(c1cc(Cc2n[nH]c(=O)c3ccccc23)ccc1F)N1CCN(C(=O)C2CC2)CC1 + C=CC(=O)N1CCN(c2nc(=O)n(-c3c(C)ccnc3C(C)C)c3nc(-c4c(O)cccc4F)c(F)cc23)C(C)C1 | < 31.6 nM | < 31.6 nM | < 31.6 nM | < 31.6 nM | < 31.6 nM | 29.5% | 24.6% | 21.9% | 19.5% | 21.1% | 23.8% | 28.2% | 33.6% | 24.4% | 19.8% | 24.2% | 25.2% | 34.2% | 34.4% | 33.8% | viability, T/C [16]: 29.3%; viability, T/C [17]: 24.7%; viability, T/C [18]: 26.7%; viability, T/C [19]: 35.2%; viability, T/C [20]: 34.2%; viability, T/C [21]: 36%; viability, T/C [22]: 30.9%; viability, T/C [23]: 34.6%; viability, T/C [24]: 35.3%; viability, T/C [25]: 39.3%; viability, T/C [26]: 43.3%; viability, T/C [27]: 42.1%; viability, T/C [28]: 43.2%; viability, T/C [29]: 45%; viability, T/C [30]: 48.2%
